Measured values from patent publication US20220117938A1, “COMBINATON THERAPY WITH A DON PRODRUG AND AN IMMUNE CHECKPOINT INHIBITOR” (DRACEN PHARMACEUTICALS, INC., priority 2019, published 2022).

Tested on: Ninety four (94) cell lines and PBMC
Assay: Cell viability assay, SRB staining, 94 cell lines and PBMC (Example 7, Experiment 2)
Assay type: cell-based
Protocol: Ninety four (94) cell lines were seeded at a density varying from 500 to 7000 cells/well depending on their growth characteristics. PBMC were seeded at the density 50,000-100,000 cells/well. Cells were incubated for 48 h prior to compound treatment. Compound 1 and DON were evaluated at a concertation range of 1 nM up to 100 μM. Compound 1 dilutions in DMSO and DON dilutions in PBS were performed in 96-well 0.5 mL plates (Greiner Bio-One, Germany). Compounds were then diluted 1:100 in RPMI medium. […] of cells were treated by mixing with 10 μL of the compound-containing media (resulting in a final DMSO concentration of 0.1%). The cells were allowed to grow at 37° C. for 120 h. Cells were fixed to the surface by addition of 10% TCA (for adherent growing cells) or 50% TCA (for semi-adherent growing cells or cells growing in suspension). After an hour of incubation at 4° C., plates were washed twice with 400 μL of deionized water and dried. Cells were then stained with 100 μL of 0.04% wt/v SRB. The plates were incubated at room temperature for at least 30 min and washed six times with 1% acetic acid to remove unbound stain. The plates were left to dry at room temperature and bound SRB was solubilized with 100 μL of 10 mM Tris base. Optical density was measured at 492, 520 and 560 nm using a Deelux-LED96 plate reader (Deelux Labortechnik GmbH, Germany).
Cell lines were purchased directly from the ATCC, NCI, CLS, and DSMZ cell line collections. A master bank and working aliquots were prepared. Cells used for the study had undergone less than 20 passages. To rule out potential contamination or wrong assignment, all cell lines were tested by STR analysis. Absence of mycoplasma contamination was confirmed for all cell lines used in the studies.
The cell lines were grown in the media recommended by the suppliers in the presence of 100 U/mL penicillin and 100 μg/mL streptomycin supplied with 10% FCS (PAA, Germany). RPMI 1640, DMEM, and MEM Earle's medium were from PAA (Coelbe, Germany), supplements 2 mM L-glutamine, 1 mM Na-pyruvate and 1% NEAA were from PAA (Coelbe, Germany), 2.5% horse serum, hydrocortisone, transferin, beta-estradiol, selenite and 1 U/mL insulin from Sigma-Aldrich (Munich, Germany). RPMI medium was used for culturing the following cell lines: 5637, 22RV1, 7860, A2780, A431, A549, ACHN, ASPC1, BT20, BXPC3, CAKI1, CLS439, COLO205, COLO678, DLD1, DU145, EFO21, EJ28, HCT15, HS578T, IGROV1, JAR, LOVO, MCF7, MDA MB231, MDA MB435, MDA MB436, MDA MB468, MHHES1, MT3, NCI H292, NCI H358M, NCI H460, NCIH82, OVCAR3, OVCAR4, PANC 1005 (addition of insulin), PBMC, PC3, RDES, SF268, SF295, SKBR3, SK MEL28, SKMEL5, SKOV3, SW620, U2OS, UMUC3, and U031.
DMEM medium was used to culture A204, A375, A673, C33A, CASKI, HCT116, HEPG2, HS729, HT29, J82, MG63, MIAPACA2 (addition of horse serum), PANC1, PLCPRF5, RD, SAOS2, SKLMS1, SKNAS, SNB75, T24, and TE671.
MEM Earle's medium was used for CACO2, CALU6, HEK293, HELA, HT1080, IMR90, JEG3, JIMT1, SKHEP1, SKNSH, and U87MG. Cell seeding conditions were optimized for each cell line. The cell seeding density varied from 500 to 7000 cells/well depending on their growth characteristics. Peripheral blood mononuclear cells (PBMC) were freshly isolated from whole blood of an anonymous donor through density gradient centrifugation using Ficoll solution (d=1.077). In short, blood was diluted 1:1 with PBS and carefully placed on the Ficoll. After centrifugation 1000×g for 15 min (braking rate 0), the ring containing mainly leucocytes was collected in PBS followed by three times washing with PBS to reduce the platelets. PBMC were seeded at the density 50,000-100,000 cells/well. Cells were grown in 5% CO2 atmosphere in a NB-203XXL incubator (N-BIOTEK Inc., Korea).
Ninety-four cell lines were tested in parallel. Cell growth and treatment were performed in 96 well microtitre plates CELLSTAR® (Greiner Bio-One, Germany). […]

[1] = Homo sapiens, 22Rv1, 22RV1, prostate
[2] = Homo sapiens, 786-0, 786O, kidney
[3] = Homo sapiens, A204, A204, muscle
[4] = Homo sapiens, A673, A673, muscle
[5] = Homo sapiens, A2780, A2780, ovary
[6] = Homo sapiens, A-375, A375, skin
[7] = Homo sapiens, A-431, A431, skin
[8] = Homo sapiens, ASPC1, ASPC1, pancreas
[9] = Homo sapiens, BT-20, BT20, breast
[10] = Homo sapiens, C-33-A, C33A, endometrial
[11] = Homo sapiens, CAKI-1, CAKI1, kidney
[12] = Homo sapiens, COLO 205, COLO205, colon
[13] = Homo sapiens, Ca-Ski, CASKI, endometrial
[14] = Homo sapiens, Caco-2, CACO2, colon
[15] = Homo sapiens, Calu-6, CALU6, lung
[16] = Homo sapiens, DLD-1, DLD1, colon
[17] = Homo sapiens, DU-145, DU145, prostate
[18] = Homo sapiens, EFO-21, EFO21, ovary
[19] = Homo sapiens, EJ-28, EJ28, bladder
[20] = Homo sapiens, Granta-519, GRANTA-519, hematological
[21] = Homo sapiens, HCT-15, HCT15, colon
[22] = Homo sapiens, HCT-116, HCT116, colon
[23] = Homo sapiens, HEK293, HEK293, kidney
[24] = Homo sapiens, HL-60, HL-60, hematological
[25] = Homo sapiens, HT-29, HT29, colon
[26] = Homo sapiens, HT-1080, HT1080, connective tissue
[27] = Homo sapiens, HeLa, endometrial
[28] = Homo sapiens, HepG2, HEPG2, liver
[29] = Homo sapiens, IGROV-1, IGROV1, ovary
[30] = Homo sapiens, JEG-3, JEG3, placenta
[31] = Homo sapiens, JIMT-1, JIMT1, breast
[32] = Homo sapiens, K562, K-562, hematological
[33] = Homo sapiens, Kasumi 1, KASUMI-1, hematological
[34] = Homo sapiens, L-363, L-363, hematological
[35] = Homo sapiens, MCF7, MCF7, breast
[36] = Homo sapiens, MDA-MB-231, MDAMB231, breast
[37] = Homo sapiens, MDA-MB-435, MDAMB435, skin
[38] = Homo sapiens, MDA-MB-436, MDAMB436, breast

`CC(=O)N[C@@H](Cc1c[nH]c2ccccc12)C(=O)N[C@@H](CCC(=O)C=[N+]=[N-])C(=O)OC(C)C` [Compound 1, Isopropyl (S)-2-((S)-2-acetamido-3-(1H-indol-3-yl)propanamido)-6-diazo-5-oxohexanoate] showed an IC50 (5637, bladder) of 2.43 µM, an IC50 (CLS439, bladder) of 8.43 µM and a GI50 [1] of 1.02 µM. It also gave an IC50 [1] of 1.1 µM, a GI50 [2] of 3.34 µM and an IC50 [2] of 3.84 µM. The GI50 [3] was 2.65 µM, the IC50 [3] was 20.3 µM and the GI50 (Homo sapiens, A549, A549, lung) was 9.04 µM. For the same compound, the IC50 (Homo sapiens, A549, A549, lung) was 9.28 µM, the GI50 [4] was 3.49 µM and the IC50 [4] was 3.87 µM. It also gave a GI50 [5] of 3.04 µM, an IC50 [5] of 3.28 µM and a GI50 [6] of 4.13 µM. For the same compound, the IC50 [6] was 4.39 µM, the GI50 [7] was 14.2 µM and the IC50 [7] was 18.4 µM. The GI50 (Homo sapiens, ACHN, kidney) was 7.88 µM, the IC50 (Homo sapiens, ACHN, kidney) was 8.98 µM and the GI50 [8] was 5.96 µM. It also gave an IC50 [8] of 8.36 µM, a GI50 [9] of 20 µM and an IC50 [9] of 53.1 µM. For the same compound, the GI50 (Homo sapiens, BXPC-3, BXPC3, pancreas) was 4.24 µM, the GI50 [10] was 7.46 µM and the IC50 [10] was 7.69 µM. It also gave a GI50 [11] of 5.3 µM, an IC50 [11] of 6.84 µM and a GI50 [12] of 2.73 µM. For the same compound, the IC50 [12] was 4.66 µM, the GI50 (Homo sapiens, COLO-678, COLO678, colon) was 93 µM and the GI50 [13] was 5.9 µM. For the same compound, the IC50 [13] was 7.83 µM, the GI50 [14] was 19.4 µM and the IC50 [14] was 28.2 µM. It also gave a GI50 [15] of 5.88 µM, an IC50 [15] of 7.07 µM and a GI50 [16] of 9.25 µM. It also gave an IC50 [16] of 9.59 µM, a GI50 [17] of 8.82 µM and an IC50 [17] of 10.9 µM. The GI50 [18] was 6.86 µM, the IC50 [18] was 14.1 µM and the GI50 [19] was 5.82 µM. For the same compound, the IC50 [19] was 6.55 µM, the GI50 [20] was 0.687 µM and the IC50 [20] was 0.768 µM. It also gave a GI50 [21] of 20.1 µM, an IC50 [21] of 21.7 µM and a GI50 [22] of 1.31 µM. The IC50 [22] was 1.33 µM, the GI50 [23] was 9.21 µM and the IC50 [23] was 10.4 µM. For the same compound, the GI50 [24] was 1.09 µM, the IC50 [24] was 1.1 µM and the GI50 [25] was 0.88 µM. It also gave an IC50 [25] of 1.07 µM, a GI50 [26] of 2.61 µM and an IC50 [26] of 3.04 µM. For the same compound, the GI50 [27] was 11.8 µM, the IC50 [27] was 13.4 µM and the GI50 [28] was 7.87 µM. For the same compound, the IC50 [28] was 9.85 µM, the GI50 (Homo sapiens, Hs-578T, HS578T, breast) was 36.4 µM and the GI50 [29] was 8.98 µM. It also gave an IC50 [29] of 10.7 µM, a GI50 (Homo sapiens, IMR-90, IMR90, lung) of 14.6 µM and a GI50 [30] of 3.87 µM. It also gave an IC50 [30] of 4.78 µM, a GI50 [31] of 19.4 µM and an IC50 [31] of 40.6 µM. For the same compound, the GI50 [32] was 1.15 µM, the IC50 [32] was 1.2 µM and the GI50 [33] was 3.17 µM. For the same compound, the IC50 [33] was 7.95 µM, the GI50 [34] was 0.546 µM and the IC50 [34] was 0.717 µM. It also gave a GI50 (Homo sapiens, LoVo, colon) of 5.16 µM, an IC50 (Homo sapiens, LoVo, colon) of 5.55 µM and a GI50 [35] of 4.13 µM. The IC50 [35] was 8.59 µM, the GI50 [36] was 11.6 µM and the IC50 [36] was 14.6 µM. The GI50 [37] was 14.7 µM, the IC50 [37] was 15.2 µM and the GI50 [38] was 49.3 µM. The IC50 [38] was 131 µM.
